Data: patent EP0471221B1, “Herbicidal compositions” (IDEMITSU KOSAN COMPANY LIMITED, priority 1990, dated 1992)

What was measured:
[1] = system: Galium aparine L.; test: Test on post-emergence treatment (greenhouse pots, foliage spray); assay type: in vivo; conditions: after 20 days
From the text: (§1) By uniformly blending 97 parts of clay (trademark: JIKURAITO, manufactured by JIKURAITO KOGYO) as the carrier, 1.5 parts of alkylaryl sulfonate (trademark: NEOPELEX, manufactured by Kao Atlas Co., Ltd.) as the surfactant, 1.5 parts of nonionic and anionic surfactant (trademark: Solpol 800A, manufactured by Toho Chemical Industry Co., Ltd.) and grinding into a powder, a carrier for wettable powders was obtained.
(§2) By uniformly blending 90 parts of this carrier for wettable powders and 10 parts of the triazine derivative shown in Table 1 (Compounds A-1 through A-7) or 10 parts of the thiocarbamate type herbicide shown in Table 2 (Compounds B) and grinding into a powder, wettable powders were obtained.
(§3) Furthermore, the carrier for wettable powders containing the triazine derivative obtained above was blended with the carrier for wettable powders containing the thiocarbamate type herbicide in definite amounts (ratios as active ingredients), uniformly kneaded and ground into powders to give wettable powders.
(§4) Wagner's pots of 1/2000 ares were filled with soil from upland fields and planted with weed seeds of Alopecurus myosuroides, Galium aparine L., Veronica hederifolia and Viola arvensis and crop seeds of wheat, barley and oat. The seeds were then covered with soil and cultivated in a greenhouse. An aqueous suspension of a definite amount of the herbicide obtained in Formulation Example 6 was uniformly sprayed onto the foliage of 1.5 to 2.5 leaf stage of these weeds and 3 leaf stage of the crops at a spray volume corresponding to 100 liters/10 ares. Then, cultivation was performed in the greenhouse. After 20 days, crop injury and the herbicidal effect on the weeds were evaluated according to the criterion described below.
(§5) The herbicidal rate described above was determined according to the following equation by measuring the raw weight of weed on the ground in the treated group and the raw weight of weed on the ground in the untreated group. [formula]
(§6) Some data were extracted from the results shown in Table 3 and the synergistic effect of the triazine derivative and the thiocarbamate type herbicide was examined on Galium aparine L. and Viola arvensis according to the following method. [formula] Q a : found data (%) of herbicidal rate when treated at a dosage corresponding to a g/10 ares using the triazine derivative alone as active ingredient Q b : found data (%) of herbicidal rate when treated at a dosage corresponding to b g/10 ares using the thiocarbamate type herbicide alone as active ingredient Q E : expected value [Limpel, L.E., P.H. Schuldt and D. Lamont, Proc. NEWCC, 16, 48-53 (1962)] Herein, when the found data (herbicidal rate) of the herbicidal obtained by mixing the triazine derivative and the thiocarbamate type herbicide is larger than Q E, it can be said that the herbicidal activity is synergistic.

[2] = system: Viola arvensis; test: as above; assay type: in vivo; conditions: after 20 days
From the text: as §1, §2, §3, §4, §5, §6

[3] = triazine derivative alone, 5 g/10a
[4] = triazine derivative alone, 10 g/10a
[5] = thiocarbamate type herbicide alone, 100 g/10a

Row | SMILES | Percent control of Galium aparine L.(%) [1, 3] [%] | Percent control of Viola arvensis(%) [2, 3] [%] | Percent control of Galium aparine L.(%) [1, 4] [%] | Percent control of Viola arvensis(%) [2, 4] [%] | further results
1 | CC(COc1cccc(F)c1)Nc1nc(N)nc(C(C)(C)F)n1 (stereo not drawn) [A₅, 2-amino-4-(α-fluoro,α-methylethyl)-6-[2-(3'fluorophenoxy)-1-methylethylamino]-s-triazine] | 38 | 72 | – | – | –
2 | Cc1cc(C)cc(OCC(C)Nc2nc(N)nc(C(C)(C)Cl)n2)c1 (stereo not drawn) [A₆, 2-amino-4-(α-chloro,α-methylethyl)-6-[2-(3',5'-dimethylphenoxy)-1-methylethylamino]-s-triazine] | – | – | 64 | 78 | –
3 | Cc1cc(C)cc(OCC(C)Nc2nc(N)nc(C(C)(C)F)n2)c1 (stereo not drawn) [A₇, 2-amino-4-(α-fluoro,α-methylethyl)-6-[2-(3',5'-dimethylphenoxy)-1-methylethylamino]-s-triazine] | 40 | 63 | – | – | –
4 | Cc1cccc(OCC(C)Nc2nc(N)nc(C(C)(C)F)n2)c1 (stereo not drawn) [A₄, 2-amino-4-(α-fluoro,α-methylethyl)-6-[2-(3'-methylphenoxy)-1-methylethylamino]-s-triazine] | – | – | 62 | 74 | –
5 | CC(Nc1nc(N)nc(C(C)(C)F)n1)c1cc2ccccc2o1 (stereo not drawn) [A₁, 2-amino-4-[1-(benzofuran-2'-yl)ethylamino]-6-(α-fluoro,α-methylethyl)-s-triazine] | – | – | 38 | 54 | –
6 | CC(F)c1nc(N)nc(NC(C)c2cc3ccccc3o2)n1 (stereo not drawn) [A₂, 2-amino-4-[1-(benzofuran-2'-yl)ethylamino]-6-(α-fluoroethyl)-s-triazine] | 37 | 68 | – | – | –
7 | CCCN(CCC)C(=O)SCc1ccccc1 [B, S-benzyldipropyl thiocarbamate, reference compound] | – | – | – | – | Percent control of Galium aparine L.(%) [1, 5]: 36%; Percent control of Viola arvensis(%) [2, 5]: 19%
8 | CC(Nc1nc(N)nc(C(C)(C)F)n1)c1cc2ccccc2s1 (stereo not drawn) [A₃, 2-amino-4-[1-(benzothiophen-2'-yl)ethylamino]-6-(α-fluoro,α-methylethyl)-s-triazine] | – | – | 56 | 64 | –
